For 74 compounds, logP results are on record in patent publication US9000012B2 (priority 2009, dated 2015).

The structures appear in SMILES notation.

The first data set can be described thus: logP of the compounds of table 1. The format is physicochemical.
Settings: not given
With `CCON(C)C(=O)C(=NOCc1cccc(NC(=O)OC(C)(C)C)n1)c1ccccc1` [compound 201], the logP – broadly, the decadic logarithm of the partition coefficient of the neutral form, usually between octanol and water – was found to be 2.38.
The same measure, in the same setting: the value for `C#CCCCCOC(=O)Nc1cccc(CON=C(C(=O)N(C)OCC)c2ccccc2)n1` [compound 202] was 3.71; that for `CCON(C)C(=O)C(=NOCc1cccc(NC(=O)C2COc3ccccc3O2)n1)c1ccccc1` (centres unmarked) [compound 203] was 3.83.
Regarding `CCON(C)C(=O)C(=NOCc1cccc(NC(=O)c2ccc(Cl)cc2)n1)c1ccccc1` [compound 204], the logP turned out to be 4.01.
`CCON(C)C(=O)C(=NOCc1cccc(NC(=O)C(C)Oc2ccccc2)n1)c1ccccc1` (centres unmarked) [compound 205]: the logP was found to be 3.94.
For `CCON(C)C(=O)C(=NOCc1cccc(NC(=O)Cc2ccc(OC)cc2)n1)c1ccccc1` [compound 206], the lipophilicity (logP) was determined as 3.37.
Still for that read-out and setting: the value for `CCON(C)C(=O)C(=NOCc1cccc(NC(=O)OCCOc2ccccc2)n1)c1ccccc1` [compound 207] was 3.89.
The same measure, in the same setting: the value for `CCON(C)C(=O)C(=NOCc1csc(N)n1)c1ccccc1` [compound 208] was 1.35.
The same measure, in the same setting: the value for `CCON(C)C(=O)C(=NOCc1csc(NC(=O)OCCOc2ccccc2)n1)c1ccccc1` [compound 209] was 3.62; that for `CCON(C)C(=O)C(=NOCc1csc(NC(=O)Cc2ccc(OC)cc2)n1)c1ccccc1` [compound 210] was 3.23.
`C#CCCCCOC(=O)Nc1nc(CON=C(C(=O)N(C)OCC)c2ccccc2)cs1` [compound 211] came in with a logP of 3.44.
Turning to `C#CCCOC(=O)Nc1cccc(CON=C(C(=N)N(C)N)c2ccccc2)n1` [compound 308], the logP is listed as 1.77.
Same read-out and setting: the value for `C#CCCOC(=O)Nc1cccc(CON=C(C(=N)SC)c2ccccc2)n1` [compound 309] was 3.02.

A short description of a further data set: logP of the compounds of table 1. The format is physicochemical.
Settings: not given
The source holds these as a separate data set.
Turning to `CC(C)(C)OC(=O)Nc1cccc(CON=C(C#N)c2ccccc2)n1` [compound 1], the logP is given as 4.64.
For `COC(=O)C(=NOCc1cccc(N)n1)c1ccccc1` [compound 25], the logP turned out to be 1.32.
Same read-out and setting: the value for `COC(=O)C(=NOCc1cccc(NC(=O)OC(C)(C)C)n1)c1ccccc1` [compound 26] was 4.20; that for `CCCCCOC(=O)Nc1cccc(CON=C(C(=O)OC)c2ccccc2)n1` [compound 27] was 3.69; that for `C#CCCOC(=O)Nc1cccc(CON=C(C(=O)OC)c2ccccc2)n1` [compound 28] was 3.48.
Turning to `COC(=O)C(=NOCc1cccc(NC(=O)C2COc3ccccc3O2)n1)c1ccccc1` (centres unmarked) [compound 37], the logP was found to be 4.16.
As to `COC(=O)C(=NOCc1cccc(NC(=O)C(F)(F)Oc2ccccc2)n1)c1ccccc1` [compound 38], the logP was 4.41.
Still for that read-out and setting: the value for `COC(=O)C(=NOCc1cccc(NC(=O)Cc2ccc(OC)cc2)n1)c1ccccc1` [compound 39] was 3.69; that for `COC(=O)C(=NOCc1cccc(NC(=O)c2cccc(F)c2)n1)c1ccccc1` [compound 40] was 3.94; that for `COC(=O)C(=NOCc1cccc(NCCCc2ccccc2)n1)c1ccccc1` [compound 41] was 2.60.
The compound `C=CCCOC(=O)Nc1cccc(CON=C(C(=O)OC)c2ccccc2)n1` [compound 42] gave a logP of 3.94.
Take `COC(=O)C(=NOCc1cccc(NC(=O)c2cccs2)n1)c1ccccc1` [compound 43]: the logP worked out at 3.67.
On the same count and under the same terms, the value for `COC(=O)C(=NOCc1cccc(NCCC2CCCCC2)n1)c1ccccc1` [compound 44] was 3.04; that for `CC#CCOC(=O)Nc1cccc(CON=C(C(=O)OC)c2ccccc2)n1` [compound 45] was 3.67.
Still for that read-out and setting: the value for `CCCCCCOC(=O)Nc1cccc(CON=C(C(=O)OC)c2ccccc2)n1` [compound 46] was 5.14.
Turning to `CNC(=O)C(=NOCc1cccc(N)n1)c1ccccc1` [compound 60], the logP amounted to 0.65.
In turn, `CNC(=O)C(=NOCc1cccc(N)n1)c1ccc(OCc2ccccc2)cc1` [compound 61] yielded a logP of 1.17.
In turn, `CNC(=O)C(=NOCc1cccc(NC(=O)OC(C)(C)C)n1)c1ccccc1` [compound 62] had a logP of 2.88.
Turning to `CCCCCOC(=O)Nc1cccc(CON=C(C(=O)NC)c2ccc(OCc3ccccc3)cc2)n1` [compound 64], the logP was 2.65.
The same measure, in the same setting: the value for `CCCCCOC(=O)Nc1cccc(CON=C(C(=O)NC)c2ccc(Oc3ccccc3)cc2)n1` [compound 65] was 2.64; that for `CNC(=O)C(=NOCc1cccc(NC(=O)C(F)(F)Oc2ccccc2)n1)c1ccccc1` [compound 76] was 3.35; that for `CNC(=O)C(=NOCc1cccc(NC(=O)Cc2ccc(OC)cc2)n1)c1ccccc1` [compound 77] was 2.66.
The same measure, in the same setting: the value for `CNC(=O)C(=NOCc1cccc(NC(=O)c2cccc(F)c2)n1)c1ccccc1` [compound 78] was 2.84; that for `CNC(=O)C(=NOCc1cccc(NCCCc2ccccc2)n1)c1ccccc1` [compound 79] was 1.94.
Turning to `C=CCCOC(=O)Nc1cccc(CON=C(C(=O)NC)c2ccccc2)n1` [compound 80], the logP is on record as 2.77.
For `CNC(=O)C(=NOCc1cccc(NC(=O)c2cccs2)n1)c1ccccc1` [compound 81], the logP is given as 2.57.
`CNC(=O)C(=NOCc1cccc(NCCC2CCCCC2)n1)c1ccccc1` [compound 82] displayed a logP of 2.23.
`CC#CCOC(=O)Nc1cccc(CON=C(C(=O)NC)c2ccccc2)n1` [compound 83] yielded a logP of 2.59.
`CCCCCCOC(=O)Nc1cccc(CON=C(C(=O)NC)c2ccccc2)n1` [compound 84] showed a logP of 3.48.
Same read-out and setting: the value for `CN(C)C(=O)C(=NOCc1cccc(N)n1)c1ccccc1` [compound 97] was 1.10; that for `CN(C)C(=O)C(=NOCc1cccc(NC(=O)c2cccc(F)c2)n1)c1ccccc1` [compound 113] was 3.23.
On the same count and under the same terms, the value for `CN(C)C(=O)C(=NOCc1cccc(NC(=O)c2ccc(Cl)cc2)n1)c1ccccc1` [compound 114] was 3.57; that for `CN(C)C(=O)C(=NOCc1cccc(NC(=O)OCCOc2ccccc2)n1)c1ccccc1` [compound 115] was 3.48.
As to `C=CCCOC(=O)Nc1cccc(CON=C(C(=O)N(C)C)c2ccccc2)n1` [compound 116], the logP worked out at 3.19.
In the case of `COc1ccc(OC(=O)Nc2cccc(CON=C(C(=O)N(C)C)c3ccccc3)n2)cc1` [compound 117], the logP is recorded as 3.25.
With `C#CCCOC(=O)Nc1nc(CON=C(C(=O)N(C)C)c2ccccc2)cs1` [compound 120], the logP was found to be 2.84.
The same measure, in the same setting: the value for `C#CCC(C)OC(=O)Nc1nc(CON=C(C(=O)N(C)C)c2ccccc2)cs1` (centres unmarked) [compound 121] was 2.84; that for `C#CCCCCOC(=O)Nc1nc(CON=C(C(=O)N(C)C)c2ccccc2)cs1` [compound 122] was 3.06.
`COc1ccc(CC(=O)Nc2nc(CON=C(C(=O)N(C)C)c3ccccc3)cs2)cc1` [compound 131] showed a log partition coefficient (logP) of 2.88.
Consider `CN(C)C(=O)C(=NOCc1csc(NC(=O)c2ccc(Cl)cc2)n1)c1ccccc1` [compound 132], for which the logP is listed as 3.41.
The compound `CN(C)C(=O)C(=NOCc1csc(NC(=O)OCCOc2ccccc2)n1)c1ccccc1` [compound 133] had a logP of 3.27.
In the case of `COc1ccc(C(=O)Nc2nc(CON=C(C(=O)N(C)C)c3ccccc3)cs2)cc1` [compound 134], the logP worked out at 2.84.
On to `C#CCC(C)OC(=O)Nc1cccc(CON=C(C(=O)N(C)CC)c2ccccc2)n1` (centres unmarked) [compound 135], for which the lipophilicity (logP) was 3.31.
Same read-out and setting: the value for `CCN(C)C(=O)C(=NOCc1cccc(NC(=O)C(C)Oc2ccccc2)n1)c1ccccc1` (centres unmarked) [compound 136] was 3.78; that for `CCN(C)C(=O)C(=NOCc1cccc(NC(=O)Cc2ccc(OC)cc2)n1)c1ccccc1` [compound 137] was 3.23; that for `C#CCCCCOC(=O)Nc1cccc(CON=C(C(=O)N(C)CC)c2ccccc2)n1` [compound 138] was 3.35.
Still for that read-out and setting: the value for `CCN(C)C(=O)C(=NOCc1cccc(NC(=O)C2COc3ccccc3O2)n1)c1ccccc1` (centres unmarked) [compound 139] was 3.69; that for `CCN(C)C(=O)C(=NOCc1cccc(NC(=O)c2ccc(Cl)cc2)n1)c1ccccc1` [compound 140] was 3.85.
On the same count and under the same terms, the value for `CCN(C)C(=O)C(=NOCc1cccc(NC(=O)OCCOc2ccccc2)n1)c1ccccc1` [compound 141] was 3.76; that for `CCN(C)C(=O)C(=NOCc1cccc(NC(=O)OC(C)(C)C)n1)c1ccccc1` [compound 142] was 3.72; that for `C#CCCOC(=O)Nc1cccc(CON=C(C(=O)N(C)CC)c2ccccc2)n1` [compound 143] was 3.04.
`CCN(C)C(=O)C(=NOCc1csc(N)n1)c1ccccc1` [compound 144] showed a logP of 1.34.
`C#CCC(C)OC(=O)Nc1nc(CON=C(C(=O)N(C)CC)c2ccccc2)cs1` (centres unmarked) [compound 145] gave a logP of 3.09.
The compound `CCN(C)C(=O)C(=NOCc1csc(NC(=O)C(C)Oc2ccccc2)n1)c1ccccc1` (centres unmarked) [compound 146] gave a logP of 3.48.
Compound `CCN(C)C(=O)C(=NOCc1csc(NC(=O)Cc2ccc(OC)cc2)n1)c1ccccc1` [compound 147] yielded a log partition coefficient (logP) of 3.09.
Still for that read-out and setting: the value for `C#CCCCCOC(=O)Nc1nc(CON=C(C(=O)N(C)CC)c2ccccc2)cs1` [compound 148] was 3.29; that for `CCN(C)C(=O)C(=NOCc1csc(NC(=O)C2COc3ccccc3O2)n1)c1ccccc1` (centres unmarked) [compound 149] was 3.39.
Same read-out and setting: the value for `CCN(C)C(=O)C(=NOCc1csc(NC(=O)c2ccc(Cl)cc2)n1)c1ccccc1` [compound 150] was 3.69; that for `CCN(C)C(=O)C(=NOCc1csc(NC(=O)OCCOc2ccccc2)n1)c1ccccc1` [compound 151] was 3.48.
Same read-out and setting: the value for `C#CCCOC(=O)Nc1nc(CON=C(C(=O)N(C)CC)c2ccccc2)cs1` [compound 152] was 2.80.

Still in this data set, the particulars now being: read-out: logP.
Regarding `C#CCCOC(=O)Nc1cccc(CON=C(C#N)c2ccccc2)n1` (single isomer, unassigned) [Example 3, but-3-yn-1-yl{6-[({[cyano(phenyl)methylene]amino}oxy)methyl]pyridin-2-yl}carbamate], the logP stood at 3.67.
